Test: not told

## CON(C)Cc1ccc(O)c2c1CC1CC3C(N(C)C)C(O)=C(C(N)=O)C(=O)C3(O)C(O)=C1C2=O (stereo not drawn)
pH 3.5, 25
  log partition chloroform / water/buffer: 1.14 log10
  log partition octanol / water/buffer: −0.30 log10
pH 5.5, 25
  log partition chloroform / water/buffer: 1.48 log10
  log partition octanol / water/buffer: −0.16 log10
pH 7.4, 25
  log partition chloroform / water/buffer: 1.46 log10
  log partition octanol / water/buffer: −0.26 log10

— PMC9773825
